The text below walks through data of US4554353A, “2,5-Pyrrolidinedione derivatives useful as antiarrhythmic agents” (G. D. Searle & Co., priority 1984, dated 1985).

The target in one assay is Muscarinic Receptor. Kind of assay: Muscarinic Receptor Binding Assay (3H-QNB displacement, rat brain homogenate). The note with it: inhibition of specific 3H-QNB binding by 50%, 0.15 nM 3H-QNB, pH 7.4, 25° C., 1 hour.
The subject of a further assay is Ventricular arrhythmia. Kind of assay: Harris Dog Efficacy (ventricular arrhythmia induced by 2-stage coronary artery ligation in unanesthetized dogs). The note with it: for minimal effective dose: Canis lupus familiaris, 10 min, intravenous, unanesthetized dogs, at least 25% reduction in ectopic beats for at least 10 minutes in half or more of dogs; for activity in the dog ventricular arrhythmia test: active = at least 25% reduction in ectopic beats for at least 10 minutes in half or more of dogs. Format: in vivo. As to the method:
Ventricular arrhythmia is induced by a 2-stage ligation of the anterior descending branch of the left coronary artery in each of two or more unanesthetized dogs. The test compound is administered intravenously at 5 mpk doses to a maximum dose of 20 mpk.

The term IC50 denotes the concentration that inhibits the measured activity by half. Read a low IC50 as greater potency in that assay. The minimal effective dose is the smallest amount tested that counted as effective. High values mean a need for much substance, low ones an effect from little substance. `CC(C)N(CCC1(c2ccccc2)CC(=O)NC1=O)C(C)C` (stereo not shown) [Example 2, 3-[2-[bis(1-methylethyl)amino]ethyl]-3-phenyl-2,5-pyrrolidinedione] came in with an IC50 at Muscarinic Receptor of 140 nM. In addition, the minimal effective dose in the assay with Ventricular arrhythmia is 10 mg/kg.

`CC(C)N(CCC1(c2ccccc2Cl)CC(=O)NC1=O)C(C)C` (stereo not shown) [Example 4, 3-[2-[bis(1-methylethyl)-amino]ethyl]-3-(2-chlorophenyl)-2,5-pyrrolidinedione] showed an IC50 at Muscarinic Receptor of 300 nM. This compound displayed a minimal effective dose with Ventricular arrhythmia of 2.8 mg/kg.

For `CC1CCCC(C)N1CCC1(c2ccccc2Cl)CC(=O)NC1=O` (stereo not shown) [Example 6, 3-(2-chlorophenyl)-3-[2-(2,6-dimethyl-1-piperidinyl)ethyl]-2,5-pyrrolidinedione], on Muscarinic Receptor, the IC50 turned out to be 470 nM. For the same compound, the minimal effective dose with Ventricular arrhythmia came to 1.3 mg/kg.

`CCCN(CCC)CCCC1(c2ccccc2Cl)CC(=O)NC1=O` (stereo not shown) [Example 14]: the IC50 on Muscarinic Receptor was 3600 nM. For the same compound, in the assay on Ventricular arrhythmia, the minimal effective dose is 1 mg/kg.

For `CCN(CC)CCC1(c2ccccc2)CC(=O)NC1=O` (stereo not shown) [Formula II (Prior Art), reference compound], the IC50 at Muscarinic Receptor was 20 nM. In the assay on Ventricular arrhythmia, this compound came in with a minimal effective dose of 2 mg/kg.

With `CC(C)N(CCC(C(N)=O)(c1ccccc1)c1ccccn1)C(C)C` (stereo not shown) [Norpace, reference compound], in the assay on Ventricular arrhythmia, the “activity in the dog ventricular arrhythmia test” value (from here on “activity”) is listed as “active”.

Regarding `CCN(CC)CCNC(=O)c1ccc(N)cc1` [procainamide, reference compound], the “activity” value in the assay on Ventricular arrhythmia is listed as “active”.

For the compound `C=C[C@H]1C[N@@]2CC[C@H]1C[C@@H]2[C@@H](O)c1ccnc2ccc(OC)cc12` [quinidine, reference compound], the “activity” value in the assay on Ventricular arrhythmia is on record as “active”.
